# Values of other authors in patent publication US20260283918A1, “AZELAIC ACID/BETAINE/PANTHENOL SELF-RECOGNITION DES SYSTEM AND PREPARATION METHOD” (Wuxi Zhiyan Biotechnology Co., LTD, priority 2023, published 2026).
# Details: water and oil
structure (smiles),measurement,value
O=C(O)CCCCCCCC(=O)O [azelaic acid],solubility of azelaic acid,poor solubility in both water and oil
